In ChEMBL document CHEMBL1212908, “Flavonoids in the poisonous plant Oxytropis falcata” (J Nat Prod, 2010):

Legend:
[1] = tested on: Radical scavenging activity; test: Antioxidant activity assessed as DPPH free radical scavenging activity after 30 mins; assay type: functional
HL-60 = test: Cytotoxicity against human HL60 cells by MTT assay; assay type: functional, cell-based

`COc1c(O)cc2c(c1OC)O[C@H]1c3ccc(O)cc3OC[C@@H]21` was tested. Which IC20 [1] did it give?
The IC20 was 3.8 µM.

And the IC50 (HL-60)?
The IC50 was over 50 µM.

What does the source list for `COc1ccc([C@@H]2COc3cc(O)c(C(c4ccc(O)cc4O)C(O)Cc4ccc(O)cc4)cc3C2)c(O)c1OC` (some centres not stated) [OXYTROPISOFLAVAN A]?
IC20 [1]: > 50 µM; IC50 (HL-60): > 50 µM

What does the source list for `COc1ccc([C@@H]2COC3=CC(=O)CC[C@]3(O)C2)c(O)c1OC` [OXYTROPISOFLAVAN B]?
IC20 [1]: > 50 µM; IC50 (HL-60): > 50 µM

Which IC20 [1] does the source give for VITAMIN E here?
The IC20 was 7.6 µM.
